Results taken from US20240368168A1, “SARM1 ENZYME ACTIVITY INHIBITOR AND APPLICATION THEREOF” (ARTIVILA BIOPHARMA, priority 2021, published 2024).
Where a name gives a salt, the structure may show the parent alone.

Target: T1, dN-SARM1 protein (Homo sapiens, UniProt Q6SZW1)
T1 construct: the N-terminal mitochondrial localization signal peptide of SARM1 was removed
T1 sequence (Q6SZW1 28-724): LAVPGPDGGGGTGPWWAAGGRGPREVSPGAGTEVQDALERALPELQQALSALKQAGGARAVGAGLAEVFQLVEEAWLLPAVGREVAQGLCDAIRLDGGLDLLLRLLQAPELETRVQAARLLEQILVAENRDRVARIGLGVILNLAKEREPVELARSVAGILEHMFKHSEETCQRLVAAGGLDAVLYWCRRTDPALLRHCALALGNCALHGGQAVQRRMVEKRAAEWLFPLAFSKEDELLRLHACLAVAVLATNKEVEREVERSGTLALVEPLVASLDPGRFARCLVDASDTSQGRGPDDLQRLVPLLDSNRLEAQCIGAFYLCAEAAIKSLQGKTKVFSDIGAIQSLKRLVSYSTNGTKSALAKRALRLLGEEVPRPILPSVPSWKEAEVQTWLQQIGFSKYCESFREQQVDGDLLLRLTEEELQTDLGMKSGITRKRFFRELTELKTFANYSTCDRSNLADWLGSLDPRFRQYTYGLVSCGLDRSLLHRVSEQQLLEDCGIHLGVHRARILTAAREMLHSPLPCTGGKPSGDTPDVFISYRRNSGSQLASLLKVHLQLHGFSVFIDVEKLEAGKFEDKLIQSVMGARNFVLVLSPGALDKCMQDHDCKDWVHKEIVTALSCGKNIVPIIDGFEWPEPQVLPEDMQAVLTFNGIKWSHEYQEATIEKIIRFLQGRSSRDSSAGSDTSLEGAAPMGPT
Assay: In vitro biochemical assay for inhibiting SARM1 enzymatic activity (IC50), PC6 fluorescence method
Conditions: 50 μM NAD, 50 μM PC6, 50 μM NMN activator
Description: 200 μM compound was first added to a solution of 0.05 μg/ml dN-SARM1 in 50 mM Tris-HCl (pH 7.5). Half of the mixture was added to an equal volume of a solution of 0.05 μg/ml dN-SARM1 in 50 mM Tris-HCl (pH 7.5) and mixed. The drug was diluted 6 times in this manner, with the final concentrations being 200, 100, 50, 25, 12.5, 6.25, 3.125 μM, or 200, 50, 12.5, 3.125, 0.78, 0.195, 0.049 μM, respectively. The protein without inhibitors added, being used as control group, was incubated at room temperature for 10 minutes.
50 μM NAD, 50 μM PC6 as substrate and 50 μM NMN as activator were added to the dN-SARM1 protein incubated with the inhibitor and reacted for 30 minutes at room temperature. The concentration of each component was the final concentration in the reaction system.
During the reaction, PC6 fluorescence spectrum dynamics were detected by a microplate reader, wherein the excitation wavelength and emission wavelength for detection were 390 nm and 520 nm, respectively. Finally, the reaction rate was used to express the activity of the protein, and the half inhibitory concentration was calculated. The higher the reaction rate, the stronger the protein activity, and the lower the inhibitory efficiency of the compound.
The dose curve of compounds inhibiting SARM1 enzymatic activity was determined using the above method.

| SMILES | IC50 |
| --- | --- |
| CN(C(=O)OC(C)(C)C)c1ccc2ncc(-c3cccc4nccn34)n2c1 [Compound 173] | 1000 to 10000 nM |
| CC(=O)N(C)c1ccc2ncc(-c3cccs3)n2c1 [Compound 43] | 1000 to 10000 nM |
| CN(C(=O)C1CC1)c1ccc2ncc(-c3cccc(N)c3)n2c1 [Compound 306] | < 1000 nM |
| CN1Cc2c(cccc2-c2cnc3ccc(N(C)C(=O)OC(C)(C)C)cn23)C1=O [Compound 286] | 1000 to 10000 nM |
| CNc1ccc2ncc(-c3ccc(OC)cc3)n2c1 [Compound 72] | 1000 to 10000 nM |
| CNc1ccc2ncc(-c3cccc4c3CN(CCOC)C4=O)n2c1 [Compound 290] | 1000 to 10000 nM |
| CN(c1ccc2ncc(-c3ccccc3)n2c1)S(C)(=O)=O [Compound 91, N-methyl-N-(3-phenylimidazo[1,2-a]pyridin-6-yl)methanesulfonamide] | 1000 to 10000 nM |
| O=C(Cc1ccc(Cl)cc1)Nc1ccn2c(-c3ccncc3)cnc2c1 [Compound 222] | 1000 to 10000 nM |
| c1cc(-c2cnc3ccc(-n4cccn4)cn23)c2cc[nH]c2c1 [Compound 202, 3-(1H-indol-4-yl)-6-(1H-pyrazol-1-yl)imidazo[1,2-a]pyridine] | 1000 to 10000 nM |
| COc1ccc2ncc(Nc3ccccc3)n2c1 [Compound 82, 6-methoxy-N-phenylimidazo[1,2-a]pyridin-3-amine] | 1000 to 10000 nM |
| CC(C)(C)OC(=O)N1CCOCCN(C(=O)OC(C)(C)C)S(=O)(=O)c2cccc(c2)-c2cnc3ccc1cn23 [Compound 80, di-tert-butyl(E)-7-oxa-3-thio-4,10-diaza-1(3,6)-imidazol[1,2-a]pyridin-2(1,3)-phenylcyclodecane-4,10-dicarboxylate 3,3-dioxide] | 1000 to 10000 nM |
| CNc1ccc2ncc(-c3cccc(NC(=O)COCCOCCOCC(=O)N[C@H](C(=O)N4C[C@H](O)C[C@H]4C(=O)NCc4ccc(-c5scnc5C)cc4)C(C)(C)C)c3)n2c1 [Compound 120, (2S,4R)-1-((S)-2-(tert-butyl)-14-((3-(6-(methylamino)imidazo[1,2-a]pyridin-3-yl)phenyl)amino)-4,14-dioxo-6,9,12-trioxa-3-azatetradecanoyl)-4-hydroxy-N-(4-(4-methylthiazol-5-yl)benzyl)pyrrolidin-2-carboxamide hydrochloride] | < 1000 nM |
| CNc1ccc2ncc(-c3cncc4[nH]ccc34)n2c1 [Compound 258] | < 1000 nM |
| CNc1ccc2ncc(-c3cccc4c3CC(=O)N4C)n2c1 [Compound 296] | 1000 to 10000 nM |
| O=C(COCCOCc1ccccc1)Nc1cccc(-c2cnc3ccc(NCCCc4ccccc4)cn23)c1 [Compound 218] | 1000 to 10000 nM |
| CNc1ccc2ncc(-c3cccc4cnccc34)n2c1 [Compound 264] | < 1000 nM |
| Brc1cnc2ccc(NC3CCOC3)cn12 (stereo not shown) [Compound 86, 3-bromo-N-(tetrahydrofuran-3-yl)imidazo[1,2-a]pyridin-6-amine] | < 1000 nM |
| Ic1cnc2ccc(-n3cccc3)cn12 [Compound 203] | < 1000 nM |
| CN(C(=O)OC(C)(C)C)c1ccc2ncc(C3=CCCCC3)n2c1 [Compound 83] | 1000 to 10000 nM |
| COCCOCCNc1cccc(-c2cnc3ccc(N4CCOCC4)cn23)c1 [Compound 229] | 1000 to 10000 nM |

| SMILES | IC50 |
| --- | --- |
| CN(C(=O)OC(C)(C)C)c1ccc2ncc(-c3ccc4cc[nH]c4n3)n2c1 [Compound 297] | 1000 to 10000 nM |
| CNc1ccc2ncc(-c3ccncc3)n2c1 [Compound 74] | 1000 to 10000 nM |
| CNc1ccc2ncc(-c3cccc(C(N)=O)c3)n2c1 [Compound 64] | 1000 to 10000 nM |
| CNc1ccc2ncc(-c3cccc4c3CNC4=O)n2c1 [Compound 257] | < 1000 nM |
| CN(C(=O)C(C)(C)C)c1ccc2ncc(-c3cccc(N)c3)n2c1 [Compound 302] | 1000 to 10000 nM |
| CNc1ccc2ncc(-c3cccc(S(=O)(=O)NC)c3)n2c1 [Compound 60, N-methyl-3-(6-(methylamino)imidazo[1,2-a]pyridin-3-yl)benzenesulfonamide] | 1000 to 10000 nM |
| CNc1ccc2ncc(-c3cccnc3)n2c1 [Compound 73] | 1000 to 10000 nM |
| CN(C(=O)OC(C)(C)C)c1ccc2ncc(-c3ccc4[nH]ccc4c3)n2c1 [Compound 199] | 1000 to 10000 nM |
| CN(C(=O)OC(C)(C)C)c1ccc2ncc(-c3ccnc4[nH]ccc34)n2c1 [Compound 184] | 1000 to 10000 nM |
| CN(C(=O)OC(C)(C)C)c1ccc2ncc(-c3cccc(-n4cccn4)c3)n2c1 [Compound 178] | < 1000 nM |
| COC(=O)c1cccc(-c2cnc3ccc(N(C)C(C)=O)cn23)c1 [Compound 308] | 1000 to 10000 nM |
| CNC(=O)c1ccccc1-c1cnc2ccc(N(C)C(=O)OC(C)(C)C)cn12 [Compound 174] | < 1000 nM |
| CNc1ccc2ncc(-c3ccccc3C(=O)NC3CCOCC3)n2c1 [Compound 177] | 1000 to 10000 nM |
| CNc1ccc2ncc(-c3cccc(S(N)(=O)=O)c3)n2c1 [Compound 62, 3-(6-(methylamino)imidazo[1,2-a]pyridin-3-yl) benzenesulfonamide] | 1000 to 10000 nM |
| CN(C(=O)C1CC1)c1ccc2ncc(I)n2c1 [Compound 305] | < 1000 nM |
| CN(C(=O)OC(C)(C)C)c1ccc2ncc(-c3ccnc(NC(=O)c4ccccc4)c3)n2c1 [Compound 182] | 1000 to 10000 nM |
| CN(C(=O)OC(C)(C)C)c1ccc2ncc(-c3cncc4ccccc34)n2c1 [Compound 268] | < 1000 nM |
| CNc1ccc2ncc(-c3cccc(N)n3)n2c1 [Compound 180] | 1000 to 10000 nM |
| CN(C(=O)OC(C)(C)C)c1ccc2ncc(-c3cc4ccn(C)c4cn3)n2c1 [Compound 295] | 1000 to 10000 nM |
| COc1cccc(-c2cnc3ccc(N(C)C(=O)OC(C)(C)C)cn23)n1 [Compound 16] | 1000 to 10000 nM |

| SMILES | IC50 |
| --- | --- |
| CC(=O)N(C)c1ccc2ncc(-c3ccccc3)n2c1 [Compound 42] | < 1000 nM |
| CNc1ccc2ncc(-c3ccc4cn[nH]c4c3)n2c1 [Compound 284] | 1000 to 10000 nM |
| CNc1ccc2ncc(-c3cncc4[nH]cc(I)c34)n2c1 [Compound 209] | 1000 to 10000 nM |
| COC(=O)c1ccn2c(-c3ccccc3)cnc2c1 [Compound 23] | 1000 to 10000 nM |
| CNc1ccc2ncc(C3CCCc4ncccc43)n2c1 (stereo not shown) [Compound 312] | 1000 to 10000 nM |
| CNc1ccc2ncc(-c3cncc4ccccc34)n2c1 [Compound 269] | 1000 to 10000 nM |
| CNc1ccc2ncc(-c3ccnc4[nH]ccc34)n2c1 [Compound 166] | < 1000 nM |
| CNc1ccc2ncc(-c3cccc(S(=O)(=O)N(C)C(=O)OC(C)(C)C)c3)n2c1 [Compound 59, tert-butyl methyl ((3-(6-(methylamino)imidazo[1,2-a]pyridin-3-yl)phenyl)sulfonyl)carbamate] | 1000 to 10000 nM |
| CN(C(=O)OC(C)(C)C)c1ccc2ncc(-c3ccccc3C(=O)NC3CCOCC3)n2c1 [Compound 175] | < 1000 nM |
| COc1ccc2ncc(-c3cccc(S(N)(=O)=O)c3)n2c1 [Compound 5] | 1000 to 10000 nM |
| CNc1ccc2ncc(-c3cccc4c(I)n[nH]c34)n2c1 [Compound 210, 3-(3-iodo-1H-indazol-7-yl)-N-methylimidazol[1,2-a]pyridin-6-amine hydrochloride] | 1000 to 10000 nM |
| Cc1ncsc1-c1ccc(CNC(=O)[C@@H]2C[C@@H](O)CN2C(=O)[C@@H](NC(=O)COCCOCC(=O)N(C)c2ccc3ncc(-c4ccccc4Cl)n3c2)C(C)(C)C)cc1 [Compound 117, (2S,4R)-1-((S)-12-(tert-butyl)-2-(3-(2-chlorophenyl)imidazo[1,2-a]pyridin-6-yl)-3,10-dioxo-5,8-dioxa-2,11-diazahexadecane-13-acyl)-4-hydroxy-N-(4-(4-methylthiazol-5-yl)benzyl)pyrrolidin-2-carboxamide] | 1000 to 10000 nM |
| CC(=O)N(C)c1ccc2ncc(-c3cccc(C(=O)NC4CCOCC4)c3)n2c1 [Compound 309] | 1000 to 10000 nM |
| CN(C(=O)OC(C)(C)C)c1ccc2ncc(-c3cnc(N)nc3)n2c1 [Compound 194] | 1000 to 10000 nM |
| CNc1ccc2ncc(-c3ccccc3C)n2c1 [Compound 67] | 1000 to 10000 nM |
| CNc1ccc2ncc(-c3cccc4c3CC(=O)N4)n2c1 [Compound 298] | 1000 to 10000 nM |
| CNc1ccc2ncc(-c3ccc4c(c3)CNC4=O)n2c1 [Compound 266] | 1000 to 10000 nM |
| CNc1ccc2ncc(-c3ccc4[nH]ccc4n3)n2c1 [Compound 197] | 1000 to 10000 nM |
